Measurements published in ChEMBL document CHEMBL1201862, “PubChem BioAssay data set” (2004).
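Where inhibition never reached the appropriate level, the endpoint shown equals the highest concentration tested. Otherwise, values were interpolated linearly from a five-concentration, 48-hour dose response in 96-well plates. GI50 is the concentration that inhibits growth by half.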 Calls of active or inactive are those of the source. Rule as the data show it: active = GI50 up to about 1.1 µM and inactive = higher.

How the values were obtained:
Experiment in all cases: NCI anticancer screen, dose series, 48 h
[1] = tested on: SF-295
[2] = tested on: UACC-257
[3] = tested on: MOLT-4
[4] = tested on: Malme-3M
[5] = tested on: DMS-114
[6] = tested on: SK-OV-3
[7] = tested on: SK-MEL-28
[8] = tested on: IGROV-1
[9] = tested on: SK-MEL-2
[10] = tested on: NCI/ADR-RES
[11] = tested on: LOX IMVI
[12] = tested on: SK-MEL-5
[13] = tested on: HT-29
[14] = tested on: SF-539
[15] = tested on: EKVX
[16] = tested on: SNB-75
[17] = tested on: K562
[18] = tested on: NCI-H23
[19] = tested on: NCI-H226
[20] = tested on: HCC 2998
[21] = tested on: DLD-1
[22] = tested on: HOP-62
[23] = tested on: KM-20L2
[24] = tested on: SW-620
[25] = tested on: SNB-19
[26] = tested on: CAKI-1
[27] = tested on: OVCAR-8
[28] = tested on: SN12C
[29] = tested on: RXF 393
[30] = tested on: KM12
[31] = tested on: HOP-18
[32] = tested on: OVCAR-5
[33] = tested on: SF-268
[34] = tested on: SNB-78
[35] = tested on: A498
[36] = tested on: UACC-62
[37] = tested on: CCRF-CEM
[38] = tested on: COLO 205
[39] = tested on: OVCAR-4
[40] = tested on: NCI-H460
[41] = tested on: U-251
[42] = tested on: MCF7
[43] = tested on: HOP-92
[44] = tested on: OVCAR-3
[45] = tested on: HL-60
[46] = tested on: DMS-273
[47] = tested on: A549
[48] = tested on: NCI-H522
[49] = tested on: RPMI-8226
[50] = tested on: UO-31
[51] = tested on: HCT-116
[52] = tested on: HCT-15
[53] = tested on: TK-10
[54] = tested on: M14
[55] = tested on: MDA-MB-231
[56] = tested on: 786-0
[57] = tested on: SR
[58] = tested on: ACHN
[59] = tested on: BT-549
[60] = tested on: MDA-MB-435
[61] = tested on: DU-145
[62] = tested on: MDA-N
[63] = tested on: T47D
[64] = tested on: PC-3
[65] = tested on: Hs-578T

CCCn1cc2c3c(cccc31)C1C=C(C)CN(C)C1C2 (stereo unspecified)
GI50 [1]: 23.8 µM (inactive)
GI50 [2]: 7.69 µM (inactive)
GI50 [3]: 9.66 µM (inactive)
GI50 [4]: 18.7 µM (inactive)
GI50 [5]: 15.1 µM (inactive)
GI50 [6]: 37.3 µM (inactive)
GI50 [7]: 18.1 µM (inactive)
GI50 [8]: 27 µM (inactive)
GI50 [9]: 29.1 µM (inactive)
GI50 [10]: 20.8 µM (inactive)
GI50 [11]: 13.6 µM (inactive)
GI50 [12]: 11.3 µM (inactive)
GI50 [13]: 12.9 µM (inactive)
GI50 [14]: 25.6 µM (inactive)
GI50 [15]: 18 µM (inactive)
GI50 [16]: 12 µM (inactive)
GI50 [17]: 2.56 µM (inactive)
GI50 [18]: 25.5 µM (inactive)
GI50 [19]: 12.8 µM (inactive)
GI50 [20]: 15.2 µM (inactive)
GI50 [21]: 20.7 µM (inactive)
GI50 [22]: 31.7 µM (inactive)
GI50 [23]: 13 µM (inactive)
GI50 [24]: 23.4 µM (inactive)
GI50 [25]: 27 µM (inactive)
GI50 [26]: 11.8 µM (inactive)
GI50 [27]: 29.7 µM (inactive)
GI50 [28]: 27.5 µM (inactive)
GI50 [29]: 18.5 µM (inactive)
GI50 [30]: 24.2 µM (inactive)
GI50 [31]: 13.7 µM (inactive)
GI50 [32]: 25.2 µM (inactive)
GI50 [33]: 29 µM (inactive)
GI50 [34]: 30.3 µM (inactive)
GI50 [35]: 13.7 µM (inactive)
GI50 [36]: 23.4 µM (inactive)
GI50 [37]: 3.67 µM (inactive)
GI50 [38]: 9.98 µM (inactive)
GI50 [39]: 10.1 µM (inactive)
GI50 [40]: 12 µM (inactive)
GI50 [41]: 19 µM (inactive)
GI50 [42]: 9.71 µM (inactive)
GI50 [43]: 11.7 µM (inactive)
GI50 [44]: 20.4 µM (inactive)
GI50 [45]: 1.51 µM (inactive)
GI50 [46]: 13.3 µM (inactive)
GI50 [47]: 34.5 µM (inactive)
GI50 [48]: 20.7 µM (inactive)
GI50 [49]: 6.61 µM (inactive)
GI50 [50]: 9.71 µM (inactive)
GI50 [51]: 10.4 µM (inactive)
GI50 [52]: 17.4 µM

C=C1c2nc3ccccc3n2C=C(c2ccccc2)N1c1ccc([N+](=O)[O-])cc1
GI50 [53]: 4.32 µM (inactive)
GI50 [1]: 3.37 µM (inactive)
GI50 [2]: 15.3 µM (inactive)
GI50 [54]: 8.57 µM (inactive)
GI50 [3]: 29.2 µM (inactive)
GI50 [4]: 3.01 µM (inactive)
GI50 [55]: 2.39 µM (inactive)
GI50 [6]: 1.79 µM (inactive)
GI50 [7]: 24.6 µM (inactive)
GI50 [8]: 4.84 µM (inactive)
GI50 [9]: 17.7 µM (inactive)
GI50 [10]: 7.18 µM (inactive)
GI50 [11]: 5.36 µM (inactive)
GI50 [12]: 4.02 µM (inactive)
GI50 [13]: 3.47 µM (inactive)
GI50 [14]: 1.05 µM (active)
GI50 [15]: 4.85 µM (inactive)
GI50 [16]: 3.15 µM (inactive)
GI50 [56]: 0.855 µM (active)
GI50 [17]: 7.35 µM (inactive)
GI50 [18]: 9.38 µM (inactive)
GI50 [19]: 5.5 µM (inactive)
GI50 [20]: 3.49 µM (inactive)
GI50 [57]: 4.95 µM (inactive)
GI50 [58]: 1.67 µM (inactive)
GI50 [22]: 4.92 µM (inactive)
GI50 [24]: 14.4 µM (inactive)
GI50 [25]: 5.65 µM (inactive)
GI50 [26]: 9.2 µM (inactive)
GI50 [27]: 4.49 µM (inactive)
GI50 [28]: 7.89 µM (inactive)
GI50 [29]: 3.01 µM (inactive)
GI50 [30]: 4.14 µM (inactive)
GI50 [32]: 10.7 µM (inactive)
GI50 [33]: 8.11 µM (inactive)
GI50 [35]: 8.38 µM (inactive)
GI50 [36]: 7.26 µM (inactive)
GI50 [37]: 9.46 µM (inactive)
GI50 [59]: 9.16 µM (inactive)
GI50 [38]: 6.52 µM (inactive)
GI50 [39]: 0.324 µM (active)
GI50 [60]: 5.61 µM (inactive)
GI50 [40]: 1.72 µM (inactive)
GI50 [41]: 5.33 µM (inactive)
GI50 [61]: 6.92 µM (inactive)
GI50 [62]: 7.6 µM (inactive)
GI50 [42]: 3.61 µM (inactive)
GI50 [43]: 3.9 µM (inactive)
GI50 [44]: 7.06 µM (inactive)
GI50 [63]: 6.25 µM (inactive)
GI50 [64]: 15.3 µM (inactive)
GI50 [45]: 7.01 µM (inactive)
GI50 [65]: 3.04 µM (inactive)
GI50 [47]: 2.31 µM (inactive)
GI50 [48]: 3.67 µM (inactive)
GI50 [49]: 8.81 µM (inactive)
GI50 [50]: 3.3 µM (inactive)
GI50 [51]: 2.52 µM (inactive)
GI50 [52]: 5.75 µM
